# Laboratory results as given in US7115750B1, “Melanin concentrating hormone antagonist” (Takeda Pharmaceutical Company Limited, priority 1999, dated 2006).
# Structures can show the parent of a compound that is named as a salt.
row,SMILES,melting point
1,Cl.O=C(Nc1ccc(C(=O)C2CCCNC2)cc1)c1ccc(-c2ccc(Cl)cc2)cc1 (stereo not drawn),222 to 225 °C (dec.)
2,Cl.O=C(Nc1ccc(CC2CCCNC2)cc1)c1ccc(-c2ccc(F)cc2)cc1 (stereo not drawn),205 °C (dec.)
3,Cl.O=C(Nc1ccc(CC2CCCNC2)cc1)c1ccc(-c2ccc(Cl)cc2)cc1 (stereo not drawn),200 °C (dec.)
4,CN(C)CC1CCc2cc(NC(=O)c3ccc(-c4ccc(-c5ccccc5)cc4)cc3)ccc2C1.Cl (stereo not drawn),220 °C (dec.)
5,"CN(C(=O)c1ccc(-c2ccc(F)cc2)cc1)c1ccc2c(c1)CCC(CN1CCCC1)=C2 (as salt: hydrochloride) [Example 226, 4′-Fluoro-N-methyl-N-[6-(1-pyrrolidinylmethyl)-7,8-dihydro-2-naphthalenyl][1,1′-biphenyl]-4-carboxamide Hydrochloride]",201 to 203 °C
6,"CN(C)CC1=Cc2ccc(NC(=O)c3ccc(-c4ccccc4)cc3)cc2C1 (hydrate or solvate) [Example 244, N-[2-[(Dimethylamino)methyl]-1H-inden-6-yl][1,1′-biphenyl]-4-carboxamide]",187 to 189 °C
7,"CN(C)CC1CCc2cc(NC(=O)c3ccc(C(=O)c4ccccc4)cc3)ccc2C1 (stereo not drawn) [Example 2, 4-Benzoyl-N-[2-(N,N-dimethylamino)methyl-6-tetralinyl]benzamide]",193 to 196 °C
8,"CN(C)CC1CCc2cc(NC(=O)c3ccc(N4C(=O)c5ccccc5C4=O)cc3)ccc2C1 (stereo not drawn) [Example 3, N-[2-(N,N-Dimethylamino)methyl-6-tetralinyl]-4-(1,3-dioxo-1,3-dihydro-2H-isoindol-2-yl) benzamide]",235 to 240 °C
9,"CN(C)CC1CCc2cc(NC(=O)c3ccc(C(=O)Nc4ccccc4)cc3)ccc2C1 (stereo not drawn) [Example 10, N^1-[2-(N,N-Dimethylamino)methyl-6-tetralinyl]-N^4-phenyl terephthalamide]",238 to 240 °C (dec.)
10,CN(C)CC1CCc2cc(NC(=O)c3ccc(-c4ccc5c(c4)OCO5)cc3)ccc2C1 (stereo not drawn) [Example 14],174 to 176 °C
11,"CN(C)CC1CCc2cc(NC(=O)c3ccc(-c4ccc([O-])cc4)cc3)ccc2C1.[Na+] (stereo not drawn) [Example 19, Sodium salt of N-[6-[(N,N-dimethylamino)methyl]-5,6,7,8-tetrahydro-2-naphthalenyl]-4′-oxy[1,1′-biphenyl]-4-carboxamide]",246 to 248 °C
12,"CN(C)CC1CCc2cc(NC(=O)c3ccc(-c4ccc(C=O)cc4)cc3)ccc2C1 (stereo not drawn) [Example 20, N-[6-[(N,N-Dimethylamino)methyl]-5,6,7,8-tetrahydro-2-naphthalenyl]-4′-formyl[1,1′-biphenyl]-4-carboxamide]",130 to 132 °C
13,"CN(C)CC1CCc2cc(NC(=O)c3ccc(-c4ccc(CO)cc4)cc3)ccc2C1 (stereo not drawn) [Example 21, N-[6-[(N,N-Dimethylamino)methyl]-5,6,7,8-tetrahydro-2-naphthalenyl]-4′-(hydroxymethyl)[1,1′-biphenyl]-4-carboxamide]",138 to 139 °C
14,"CCCc1ccc(-c2ccc(C(=O)Nc3ccc4c(c3)CCC(CN(C)C)C4)cc2)cc1 (stereo not drawn) [Example 22, N-[6-[(N,N-Dimethylamino)methyl]-5,6,7,8-tetrahydro-2-naphthalenyl]-4′-propyl[1,1′-biphenyl]-4-carboxamide]",186 to 188 °C
15,"Cc1cc(Br)ccc1C(=O)Nc1ccc2c(c1)CCC(CN(C)C)C2 (stereo not drawn) [Example 24, 4-Bromo-N-[6-[(N,N-dimethylamino)methyl]-5,6,7,8-tetrahydro-2-naphthalenyl]-2-methylbenzamide]",140 to 142 °C
16,"CN(C)CC1CCc2cc(NC(=O)c3ccc(-c4ccc(Cl)cc4)cc3Cl)ccc2C1 (stereo not drawn) [Example 26, 3,4′-Dichloro-N-[6-[(N,N-dimethylamino)methyl]-5,6,7,8-tetrahydro-2-naphthalenyl][1,1′-biphenyl]-4-carboxamide]",177 to 179 °C
17,"Cc1cc(-c2ccc(Cl)cc2)ccc1C(=O)Nc1ccc2c(c1)CCC(CN(C)C)C2 (stereo not drawn) [Example 27, 4′-Chloro-N-[6-[(N,N-dimethylamino)methyl]-5,6,7,8-tetrahydro-2-naphthalenyl]-3-methyl[1,1′-biphenyl]-4-carboxamide]",163 to 165 °C
18,"Cc1cc(C(=O)Nc2ccc3c(c2)CCC(CN(C)C)C3)ccc1-c1ccc(Cl)cc1 (stereo not drawn) [Example 28, 4′-Chloro-N-[6-[(N,N-dimethylamino)methyl]-5,6,7,8-tetrahydro-2-naphthalenyl]-2-methyl[1,1′-biphenyl]-4-carboxamide]",193 to 195 °C
19,"CN(C)CC1CCc2cc(NC(=O)c3ccc(-c4ccc(C(F)(F)F)cc4)cc3)ccc2C1 (stereo not drawn) [Example 29, N-[6-[(N,N-Dimethylamino)methyl]-5,6,7,8-tetrahydro-2-naphthalenyl]-4′-(trifluoromethyl)[1,1-biphenyl]-4-carboxamide]",205 to 206 °C
20,"CN(C)CC1CCc2cc(NC(=O)c3ccc(-c4cccnc4)cc3)ccc2C1 (stereo not drawn) [Example 30, N-[6-[(N,N-Dimethylamino)methyl]-5,6,7,8-tetrahydro-2-naphthalenyl]-4-(3-pyridinyl)benzamide]",177 to 178 °C
21,"CN(C)CC1CCc2cc(NC(=O)c3ccc(-c4ccc(C5=NC(C)(C)CO5)cc4)cc3)ccc2C1 (stereo not drawn) [Example 32, N-[6-[(N,N-Dimethylamino)methyl]-5,6,7,8-tetrahydro-2-naphthalenyl]-4′-(4,4-dimethyl-4,5-dihydro-1,3-oxazole 2-yl)[1,1′-biphenyl]-4-carboxamide]",185 to 187 °C
22,"CN(C)CC1CCc2cc(NC(=O)c3ccc(-c4cccs4)cc3)ccc2C1 (stereo not drawn) [Example 34, N-[6-[(N,N-Dimethylamino)methyl]-5,6,7,8-tetrahydro-2-naphthalenyl]-4-(2-thienyl) benzamide]",165 to 166 °C
23,"CCOC(=O)c1ccc(-c2ccc(C(=O)Nc3ccc4c(c3)CCC(CN(C)C)C4)cc2)cc1 (stereo not drawn) [Example 35, Ethyl 4′-[[[6-[(N,N-dimethylamino)methyl]-5,6,7,8-tetrahydro-2-naphthalenyl]amino]carbonyl][1,1′-biphenyl]-4-carboxylate]",156 to 158 °C
24,"CSc1ccc(-c2ccc(C(=O)Nc3ccc4c(c3)CCC(CN(C)C)C4)cc2)cc1 (stereo not drawn) [Example 36, N-[6-[(N,N-Dimethylamino)methyl]-5,6,7,8-tetrahydro-2-naphthalenyl]-4′-(methylsulfanyl)[1,1′-biphenyl]-4-carboxamide]",178 to 180 °C
25,"CN(C)CC1CCc2cc(NC(=O)c3ccc(-c4ccc(N(C)C)cc4)cc3)ccc2C1 (stereo not drawn) [Example 37, 4′-(N,N-Dimethylamino)-N-[6-[(N,N-dimethylamino)methyl]-5,6,7,8-tetrahydro-2-naphthalenyl][1,1′-biphenyl)-4-carboxamide]",212 to 213 °C

# Other lines, results leading:
row,melting point,SMILES
1,195 °C (dec.),Cl.O=C(Nc1ccc(C(O)C2CCCNC2)cc1)c1ccc(-c2ccc(Cl)cc2)cc1 (stereo not drawn)
2,218 to 220 °C (dec.),Cl.O=C(Nc1ccc(CC2CCCNC2)cc1)c1ccc(-c2ccccc2)cc1 (stereo not drawn)
3,168 to 170 °C,CN(C)CC1CCc2cc(NS(=O)(=O)c3ccc(-c4ccccc4)cc3)ccc2C1.Cl (stereo not drawn)
4,135 to 136 °C,"CN(C)CC1CCc2cc(NC(=O)c3ccc(OCc4ccccc4)cc3)ccc2C1 (stereo not drawn) [Example 5, 4-(Benzyloxy)-N-[2-(N,N-dimethylamino)methyl-6-tetralinyl]benzamide]"
5,224 to 226 °C,"CN(C)CC1CCc2cc(NC(=O)c3ccc4c(c3)C(=O)c3ccccc3-4)ccc2C1 (stereo not drawn) [Example 6, N-[2-(N,N-Dimethylamino)methyl-6-tetralinyl]-9-oxo-9H-fluoren-2-carboxamide]"
6,222 to 223 °C (dec.),"CN(C)CC1CCc2cc(NC(=O)c3ccc4c(c3)S(=O)(=O)c3ccccc3C4=O)ccc2C1 (stereo not drawn) [Example 7, N-[2-(N,N-Dimethylamino)methyl-6-tetralinyl]-9,10,10-trioxo-9,10-dihydro-101^6-thioxanthene-3-carboxamide]"
7,216 to 217 °C (dec.),"CN(C)CC1CCc2cc(NC(=O)c3ccc(NC(=O)Nc4ccccc4)cc3)ccc2C1 (stereo not drawn) [Example 8, (4-Anilinocarbonyl)amino-N-[2-(N,N-dimethylamino)methyl-6-tetralinyl]benzamide]"
8,137 to 139 °C,"CN(C)CC1CCc2cc(NC(=O)c3ccc(Oc4ccccc4)cc3)ccc2C1 (stereo not drawn) [Example 9, N-[2-(N,N-Dimethylamino)methyl-6-tetralinyl]-4-phenoxy benzamide]"
9,137 to 138 °C,"CCc1ccc(-c2ccc(C(=O)Nc3ccc4c(c3)CCC(CN(C)C)C4)cc2)cc1 (stereo not drawn) [Example 11, (4′-Ethylbiphenyl-4-yl)-N-[2-(N,N-dimethylamino)methyl-6-tetralinyl]carboxamide]"
10,187 to 189 °C,"CN(C)CC1CCc2cc(NC(=O)c3ccc(-c4ccc(Cl)cc4)cc3)ccc2C1 (stereo not drawn) [Example 12, (4′-Chlorobiphenyl-4-yl)-N-[2-(N,N-dimethylamino)methyl-6-tetralinyl]carboxamide]"
11,143 to 145 °C,"CN(C)CC1CCc2cc(NC(=O)c3ccc(-c4ccc(Cl)c(Cl)c4)cc3)ccc2C1 (stereo not drawn) [Example 16, 3′,4′-Dichloro-N-[6-[(N,N-dimethylamino)methyl]-5,6,7,8-tetrahydro-2-naphthalenyl][1,1′-biphenyl]-4-carboxamide]"
12,154 to 155 °C,"Cc1cc(C(=O)Nc2ccc3c(c2)CCC(CN(C)C)C3)ccc1Br (stereo not drawn) [Example 25, 4-Bromo-N-[6[(N,N-dimethylamino)methyl]-5,6,7,8-tetrahydro-2-naphthalenyl]-3-methylbenzamide]"
13,235 to 237 °C,"CN(C)CC1CCc2cc(NC(=O)c3ccc(-c4ccc(NC(=O)C(F)(F)F)cc4)cc3)ccc2C1 (stereo not drawn) [Example 31, N-[6-[(N,N-Dimethylamino)methyl]-5,6,7,8-tetrahydro-2-naphthalenyl]-4′-[(trifluoroacetyl)amino][1,1′-biphenyl]-4-carboxamide]"
14,148 to 150 °C,"CN(C)CC1CCc2cc(NC(=O)c3ccc(-c4ccc(N)cc4)cc3)ccc2C1 (stereo not drawn) [Example 33, 4′-Amino-N-[6-[(N,N-dimethylamino)methyl]-5,6,7,8-tetrahydro-2-naphthalenyl][1,1′-biphenyl]-4-carboxamide]"
